The assay has as its system BDF1 mice, intracerebral L1210 leukemia, survival T/C. Nature of the assay: NCI In Vivo Anticancer Drug Screen. Data for tumor model L1210 Leukemia (intracerebral) in B6D2F1 (BDF1) mice. Conditions: higher = longer survival. Summed up: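 Transplantable tumour-bearing mice, compound-treated vs vehicle controls; read-out survival, reported as T/C ratio.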
[1] abbreviates: endpoint: mean survival time, dose: 4.0 mg/kg/injection, schedule: Q01DX001 (ip), vehicle: saline.
Setting [2] is: endpoint: mean survival time, dose: 8.0 mg/kg/injection, schedule: Q01DX001 (ip), vehicle: saline.

SMILES strings stand for the structures. Several values for one entry are separate records, joined by “and”; a condition that tells them apart may be missing. Equal entries are not always repeated. Inconclusive results and toxic doses are left out.

Regarding `CC1CCC(NC(=O)N(CCCl)N=O)CC1` (stereo not given), the T/C runs as follows: (endpoint: mean survival time, dose: 2.0 mg/kg/injection, schedule: Q01DX001 (ip), vehicle: clinical formulation) 100 % of control; (endpoint: mean survival time, dose: 2.0 mg/kg/injection, schedule: Q01DX009 (ip), vehicle: other) 117 % of control; (endpoint: mean survival time, dose: 3.13 mg/kg/injection, schedule: Q01DX009 (ip), vehicle: Klucel (hydroxypropylcellulose) (HPC)) 112 % of control; (endpoint: mean survival time, dose: 4.0 mg/kg/injection, schedule: Q01DX001 (ip), vehicle: clinical formulation) 105 % of control; under setting [1], 103 % of control; (endpoint: mean survival time, dose: 4.3 mg/kg/injection, schedule: Q01DX001 (ip), vehicle: other) 104 % of control and 107 % of control. Further, the T/C (endpoint: mean survival time, dose: 5.0 mg/kg/injection, schedule: Q01DX001 (ip), vehicle: other) is 115 % of control; the T/C (endpoint: mean survival time, dose: 5.0 mg/kg/injection, schedule: Q01DX009 (ip), vehicle: saline) was 161 % of control; the T/C (endpoint: mean survival time, dose: 5.4 mg/kg/injection, schedule: Q01DX001 (oral), vehicle: other) was 110 % of control; the T/C (endpoint: mean survival time, dose: 8.0 mg/kg/injection, schedule: Q01DX001 (ip), vehicle: Klucel (hydroxypropylcellulose) (HPC)) is 112 % of control; the T/C (endpoint: mean survival time, dose: 8.0 mg/kg/injection, schedule: Q01DX001 (ip), vehicle: clinical formulation) was 115 % of control; the T/C under setting [2] is 118 % of control. The T/C (endpoint: mean survival time, dose: 8.0 mg/kg/injection, schedule: Q01DX009 (ip), vehicle: other) is 183 % of control; the T/C (endpoint: mean survival time, dose: 9.0 mg/kg/injection, schedule: Q01DX001 (ip), vehicle: other) is 110 % of control and 112 % of control; the T/C (endpoint: mean survival time, dose: 10.0 mg/kg/injection, schedule: Q01DX009 (ip), vehicle: saline) was 151 % of control; the T/C (endpoint: mean survival time, dose: 12.5 mg/kg/injection, schedule: Q01DX009 (ip), vehicle: Klucel (hydroxypropylcellulose) (HPC)) is 161 % of control; the T/C (endpoint: mean survival time, dose: 16.0 mg/kg/injection, schedule: Q01DX001 (ip), vehicle: saline) was 153 % of control; the T/C (endpoint: mean survival time, dose: 16.0 mg/kg/injection, schedule: Q01DX009 (ip), vehicle: other) is 113 % of control. In addition, the T/C by setting is: (endpoint: mean survival time, dose: 20.0 mg/kg/injection, schedule: Q01DX001 (ip), vehicle: other) 188 % of control; (endpoint: mean survival time, dose: 20.0 mg/kg/injection, schedule: Q01DX009 (ip), vehicle: saline) 98 % of control; (endpoint: mean survival time, dose: 24.0 mg/kg/injection, schedule: Q01DX001 (ip), vehicle: other) 175 % of control and 185 % of control; (endpoint: mean survival time, dose: 25.0 mg/kg/injection, schedule: Q01DX009 (ip), vehicle: Klucel (hydroxypropylcellulose) (HPC)) 109 % of control; (endpoint: mean survival time, dose: 30.0 mg/kg/injection, schedule: Q01DX001 (ip), vehicle: other) 187 % of control and 198 % of control; (endpoint: mean survival time, dose: 32.0 mg/kg/injection, schedule: Q01DX001 (ip), vehicle: clinical formulation) 160 % of control. For the same compound, the T/C reads like this: (endpoint: mean survival time, dose: 32.0 mg/kg/injection, schedule: Q01DX001 (oral), vehicle: clinical formulation) 102 % of control; (endpoint: mean survival time, dose: 36.0 mg/kg/injection, schedule: Q01DX001 (oral), vehicle: other) 238 % of control and 243 % of control and 292 % of control; (endpoint: mean survival time, dose: 40.0 mg/kg/injection, schedule: Q01DX001 (ip), vehicle: other) 280 % of control; (endpoint: mean survival time, dose: 45.0 mg/kg/injection, schedule: Q01DX001 (ip), vehicle: other) 225 % of control and 251 % of control; (endpoint: mean survival time, dose: 45.0 mg/kg/injection, schedule: Q01DX001 (oral), vehicle: other) 306 % of control and 362 % of control; (endpoint: mean survival time, dose: 54.0 mg/kg/injection, schedule: Q01DX001 (oral), vehicle: other) 189 % of control and 248 % of control and 357 % of control. Besides, the T/C runs as follows: (endpoint: mean survival time, dose: 67.0 mg/kg/injection, schedule: Q01DX001 (ip), vehicle: other) 168 % of control; (endpoint: mean survival time, dose: 72.0 mg/kg/injection, schedule: Q01DX001 (ip), vehicle: other) 209 % of control and 306 % of control; (endpoint: mean survival time, dose: 90.0 mg/kg/injection, schedule: Q01DX001 (oral), vehicle: other) 91 % of control; (endpoint: mean survival time, dose: 91.0 mg/kg/injection, schedule: Q01DX001 (oral), vehicle: other) 114 % of control; (endpoint: mean survival time, dose: 128.0 mg/kg/injection, schedule: Q01DX001 (ip), vehicle: Klucel (hydroxypropylcellulose) (HPC)) 109 % of control; (endpoint: mean survival time, dose: 128.0 mg/kg/injection, schedule: Q01DX001 (ip), vehicle: clinical formulation) 103 % of control. Further, the T/C by setting is: (endpoint: mean survival time, dose: 128.0 mg/kg/injection, schedule: Q01DX001 (ip), vehicle: saline) 103 % of control; (endpoint: mean survival time, dose: 256.0 mg/kg/injection, schedule: Q01DX001 (ip), vehicle: Klucel (hydroxypropylcellulose) (HPC)) 111 % of control; (endpoint: mean survival time, dose: 256.0 mg/kg/injection, schedule: Q01DX001 (oral), vehicle: clinical formulation) 112 % of control; (endpoint: median survival time, dose: 2.0 mg/kg/injection, schedule: Q01DX001 (ip), vehicle: clinical formulation) 106 % of control; (endpoint: median survival time, dose: 2.0 mg/kg/injection, schedule: Q01DX001 (ip), vehicle: saline) 106 % of control; (endpoint: median survival time, dose: 4.0 mg/kg/injection, schedule: Q01DX001 (ip), vehicle: clinical formulation) 113 % of control. The T/C (endpoint: median survival time, dose: 4.0 mg/kg/injection, schedule: Q01DX001 (ip), vehicle: saline) was 115 % of control; the T/C (endpoint: median survival time, dose: 8.0 mg/kg/injection, schedule: Q01DX001 (ip), vehicle: clinical formulation) is 122 % of control; the T/C (endpoint: median survival time, dose: 16.0 mg/kg/injection, schedule: Q01DX001 (ip), vehicle: saline) is 178 % of control; the T/C (endpoint: median survival time, dose: 32.0 mg/kg/injection, schedule: Q01DX001 (ip), vehicle: clinical formulation) was 175 % of control; the T/C (endpoint: median survival time, dose: 32.0 mg/kg/injection, schedule: Q01DX001 (ip), vehicle: saline) is 159 % of control; the T/C (endpoint: median survival time, dose: 32.0 mg/kg/injection, schedule: Q01DX001 (oral), vehicle: clinical formulation) is 108 % of control. The T/C is 150 % of control (endpoint: median survival time, dose: 64.0 mg/kg/injection, schedule: Q01DX001 (oral), vehicle: clinical formulation); 110 % of control (endpoint: median survival time, dose: 128.0 mg/kg/injection, schedule: Q01DX001 (ip), vehicle: clinical formulation); 117 % of control (endpoint: median survival time, dose: 128.0 mg/kg/injection, schedule: Q01DX001 (ip), vehicle: saline); 103 % of control (endpoint: median survival time, dose: 256.0 mg/kg/injection, schedule: Q01DX001 (ip), vehicle: clinical formulation); 102 % of control (endpoint: median survival time, dose: 256.0 mg/kg/injection, schedule: Q01DX001 (ip), vehicle: saline); 118 % of control (endpoint: median survival time, dose: 256.0 mg/kg/injection, schedule: Q01DX001 (oral), vehicle: clinical formulation). The T/C was 98 % of control (endpoint: median survival time, dose: 512.0 mg/kg/injection, schedule: Q01DX001 (oral), vehicle: clinical formulation) and 83 % of control (endpoint: median survival time, dose: 1024.0 mg/kg/injection, schedule: Q01DX001 (oral), vehicle: clinical formulation).

With `O=C1N[C@@H]([C@H]2CC[C@H](Cl)CN2)C(=O)N[C@H]1[C@H]1CC[C@H](Cl)CN1`, the T/C by setting is: (endpoint: mean survival time, dose: 0.5 mg/kg/injection, schedule: Q01DX009 (ip), vehicle: saline) 110 % of control; (endpoint: mean survival time, dose: 1.0 mg/kg/injection, schedule: Q01DX001 (ip), vehicle: saline) 102 % of control; (endpoint: mean survival time, dose: 1.0 mg/kg/injection, schedule: Q01DX009 (ip), vehicle: saline) 118 % of control; (endpoint: mean survival time, dose: 2.0 mg/kg/injection, schedule: Q01DX001 (ip), vehicle: saline) 103 % of control and 100 % of control; under setting [1], 103 % of control and 119 % of control; under setting [2], 105 % of control and 123 % of control.

As to `CC(C)(C)C1CCC(NC(=O)N(CCCl)N=O)CC1` (stereo not given), the T/C is 170 % of control (endpoint: mean survival time, dose: 177.0 mg/kg/injection, schedule: Q01DX001 (ip), vehicle: other); 156 % of control and 158 % of control (endpoint: mean survival time, dose: 250.0 mg/kg/injection, schedule: Q01DX001 (ip), vehicle: other); 247 % of control (endpoint: mean survival time, dose: 354.0 mg/kg/injection, schedule: Q01DX001 (ip), vehicle: other); 196 % of control and 210 % of control (endpoint: mean survival time, dose: 375.0 mg/kg/injection, schedule: Q01DX001 (ip), vehicle: other); 155 % of control (endpoint: mean survival time, dose: 472.0 mg/kg/injection, schedule: Q01DX001 (ip), vehicle: other); 186 % of control and 201 % of control (endpoint: mean survival time, dose: 500.0 mg/kg/injection, schedule: Q01DX001 (ip), vehicle: other). Also, the T/C is 86 % of control (endpoint: mean survival time, dose: 708.0 mg/kg/injection, schedule: Q01DX001 (ip), vehicle: other) and 152 % of control (endpoint: mean survival time, dose: 750.0 mg/kg/injection, schedule: Q01DX001 (ip), vehicle: other).

For `O=NN(CCCl)C(=O)NC(Cc1ccccc1)C(=O)O` (stereo not given), the T/C reads like this: (endpoint: mean survival time, dose: 18.0 mg/kg/injection, schedule: Q01DX001 (ip), vehicle: gum acacia) 119 % of control; (endpoint: mean survival time, dose: 28.0 mg/kg/injection, schedule: Q01DX001 (ip), vehicle: gum acacia) 119 % of control; (endpoint: mean survival time, dose: 42.0 mg/kg/injection, schedule: Q01DX001 (ip), vehicle: gum acacia) 117 % of control; (endpoint: mean survival time, dose: 63.0 mg/kg/injection, schedule: Q01DX001 (ip), vehicle: gum acacia) 120 % of control; (endpoint: mean survival time, dose: 112.0 mg/kg/injection, schedule: Q01DX001 (ip), vehicle: gum acacia) 103 % of control.

The record behind these values is PubChem BioAssay AID252 (DTP/NCI, 2004).
